Experiments:
Recombinant EGFR = biological target: T1, Recombinant EGFR (Homo sapiens, UniProt P00533); assay: EGFR binding affinity (LanthaScreen TR-FRET); settings: Kinase Tracer 199, 5 h incubation
T1 construct: purchased Invitrogen
Procedure, shortened: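 Compounds were titrated against recombinant EGFR and binding was followed by LanthaScreen time-resolved FRET.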

[1] = test system: OCI-Ly10 human DLBCL cells; assay: OCI-Ly10 anti-proliferative activity (Resazurin); type: cell-based; settings: Homo sapiens, OCI-Ly10, 72 h, OCI-Ly10 cells, 72 h compound treatment, Resazurin; read-out: Proliferation Assay OCI-Ly10-20% FBS
Procedure, shortened: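 A separate untreated plate gave the Day 0 reading, measured by Resazurin fluorescence at 590 nm after 5 h. The average Day 0 value was subtracted from each treated well, and results were expressed as percent of DMSO control. IC50 values came from a log[Inhibitor] vs response Variable Slope fit in Graphpad prism.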

[2] = biological target: T2, Recombinant BTK^C481S kinase (Homo sapiens, UniProt Q06187, C481S); assay: BTK C481S binding affinity (LanthaScreen TR-FRET); settings: Kinase Tracer 236, 5 h incubation
T2 construct: purchased SignalChem
Procedure, shortened: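 BTK C481S tracer-displacement TR-FRET: 5 nM His-tagged kinase, 2 nM Eu anti-His antibody and 30 nM Kinase Tracer 236 incubated with titrated inhibitor for 5 h in Kinase Buffer A. Read at 340 nm excitation, 615/665 nm emission; IC50 from variable-slope log[inhibitor]–response fit.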

[3] = biological target: T3, Recombinant BTK^WT kinase (Homo sapiens, UniProt Q06187); assay: BTK WT binding affinity (LanthaScreen TR-FRET); settings: Kinase Tracer 236, 5 h incubation
T3 construct: purchased Invitrogen
Procedure, shortened: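 IC50 obtained by variable-slope fit of TR-FRET signal (ex 340 nm; em 615 and 665 nm) versus inhibitor concentration. Reaction held for 5 h in LanthaScreen Kinase Buffer A with 2.5 nM His-tagged BTK^WT, 15 nM Kinase Tracer 236 and 2 nM Eu anti-His antibody.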

T3 sequence (Q06187 whole entry): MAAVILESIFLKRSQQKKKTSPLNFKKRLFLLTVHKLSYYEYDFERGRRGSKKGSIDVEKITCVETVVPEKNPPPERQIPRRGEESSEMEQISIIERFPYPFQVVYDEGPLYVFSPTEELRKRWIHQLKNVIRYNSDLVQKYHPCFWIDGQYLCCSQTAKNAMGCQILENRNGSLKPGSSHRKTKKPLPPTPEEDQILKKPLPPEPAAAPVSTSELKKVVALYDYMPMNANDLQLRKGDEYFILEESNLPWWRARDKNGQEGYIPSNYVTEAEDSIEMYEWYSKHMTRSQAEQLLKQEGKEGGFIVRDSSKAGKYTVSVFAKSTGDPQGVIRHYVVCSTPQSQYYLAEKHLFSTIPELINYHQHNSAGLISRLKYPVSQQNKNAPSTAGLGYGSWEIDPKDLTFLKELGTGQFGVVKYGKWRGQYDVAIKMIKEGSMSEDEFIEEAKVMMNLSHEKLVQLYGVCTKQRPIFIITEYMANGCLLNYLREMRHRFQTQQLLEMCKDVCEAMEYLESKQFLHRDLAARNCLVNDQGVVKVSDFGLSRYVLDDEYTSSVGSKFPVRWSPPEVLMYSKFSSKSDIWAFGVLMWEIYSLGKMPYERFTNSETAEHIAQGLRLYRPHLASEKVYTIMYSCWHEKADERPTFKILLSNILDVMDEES
T2 sequence (Q06187 whole entry C481S): as the sequence (Q06187 whole entry) above, with C481S counted along it
T1 sequence (P00533 25-1210): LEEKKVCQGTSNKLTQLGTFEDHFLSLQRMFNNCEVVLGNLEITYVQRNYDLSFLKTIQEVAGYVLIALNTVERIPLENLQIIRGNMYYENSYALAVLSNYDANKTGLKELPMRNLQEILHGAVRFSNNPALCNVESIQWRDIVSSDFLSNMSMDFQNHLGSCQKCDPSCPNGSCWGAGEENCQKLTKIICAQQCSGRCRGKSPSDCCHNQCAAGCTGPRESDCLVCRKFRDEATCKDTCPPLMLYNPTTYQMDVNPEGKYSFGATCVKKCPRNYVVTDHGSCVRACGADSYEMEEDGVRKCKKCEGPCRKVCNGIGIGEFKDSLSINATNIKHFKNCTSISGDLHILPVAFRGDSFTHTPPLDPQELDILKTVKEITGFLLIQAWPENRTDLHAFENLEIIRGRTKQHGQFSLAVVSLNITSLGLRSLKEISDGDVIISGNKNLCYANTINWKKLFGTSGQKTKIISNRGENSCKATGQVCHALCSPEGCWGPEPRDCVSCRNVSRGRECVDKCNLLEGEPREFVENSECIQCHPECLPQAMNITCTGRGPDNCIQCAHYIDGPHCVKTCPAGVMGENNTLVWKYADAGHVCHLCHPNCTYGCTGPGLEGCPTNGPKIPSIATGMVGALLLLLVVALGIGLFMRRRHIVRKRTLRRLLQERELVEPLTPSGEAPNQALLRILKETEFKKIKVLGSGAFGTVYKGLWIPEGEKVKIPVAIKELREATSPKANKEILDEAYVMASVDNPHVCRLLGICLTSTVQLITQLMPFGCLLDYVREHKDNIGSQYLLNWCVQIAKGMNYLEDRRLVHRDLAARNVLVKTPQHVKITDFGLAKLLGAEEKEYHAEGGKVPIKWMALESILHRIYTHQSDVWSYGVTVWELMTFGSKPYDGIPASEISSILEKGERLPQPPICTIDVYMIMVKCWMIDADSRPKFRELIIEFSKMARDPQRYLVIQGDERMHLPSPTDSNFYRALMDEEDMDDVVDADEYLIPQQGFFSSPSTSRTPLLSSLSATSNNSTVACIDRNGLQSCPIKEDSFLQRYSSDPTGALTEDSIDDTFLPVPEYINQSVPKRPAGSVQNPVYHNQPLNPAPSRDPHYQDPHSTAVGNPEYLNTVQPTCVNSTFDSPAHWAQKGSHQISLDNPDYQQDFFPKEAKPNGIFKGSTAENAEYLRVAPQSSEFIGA

| SMILES | IC50 (Recombinant EGFR) | IC50 [1] | IC50 [2] | IC50 [3] |
| --- | --- | --- | --- | --- |
| COc1ccccc1C(=O)NCc1ccc(-c2nn(-c3ccncc3)c(N)c2C(N)=O)cc1 [Example 54, 5-amino-3-[4-[[(2-methoxybenzoyl)amino]methyl]phenyl]-1-(4-pyridyl)pyrazole-4-carboxamide] | 1000 to 10000 nM | 100 to 1000 nM | < 10 nM | 10 to 100 nM |
| COc1ccccc1C(=O)NCc1ccc(-c2nn(C3CC(=O)c4ccccc43)c(N)c2C(N)=O)cc1 (stereo not shown) [Example 59, 5-amino-3-[4-[[(2-methoxybenzoyl)amino]methyl]phenyl]-1-(3-oxoindan-1-yl)pyrazole-4-carboxamide] | 1000 to 10000 nM | 10 to 100 nM | < 10 nM | < 10 nM |
| COc1ccccc1C(=O)NCc1ccc(-c2nn(C(CO)CCl)c(N)c2C(N)=O)cc1 (stereo not shown) [Example 66, 5-amino-1-[1-(chloromethyl)-2-hydroxy-ethyl]-3-[4-[[(2-methoxybenzoyl)amino]methyl]phenyl]pyrazole-4-carboxamide] | 1000 to 10000 nM | 1000 to 10000 nM | < 10 nM | 10 to 100 nM |
| COc1ccccc1C(=O)NCc1ccc(-c2nn(C3CCCC3)c(NC(C)C)c2C(N)=O)cc1 [Example 72, 1-cyclopentyl-5-(isopropylamino)-3-[4-[[(2-methoxybenzoyl)amino]methyl]phenyl]pyrazole-4-carboxamide] | 1000 to 10000 nM | 100 to 1000 nM | < 10 nM | 10 to 100 nM |
| COc1ccccc1C(=O)NCc1ccc(-c2nn(C3CCCC3)c(Cl)c2C(N)=O)cc1 [Example 78, 5-chloro-1-cyclopentyl-3-[4-[[(2-methoxybenzoyl)amino]methyl]phenyl]pyrazole-4-carboxamide] | > 10000 nM | 1000 to 10000 nM | 10 to 100 nM | 10 to 100 nM |
| COc1ccccc1C(=O)NC(C)c1ccc(-c2nn(C3CCCC3)c(N)c2C(N)=O)cc1 (stereo not shown) [Example 79, 5-amino-1-cyclopentyl-3-[4-[1-[(2-methoxybenzoyl)amino]ethyl]phenyl]pyrazole-4-carboxamide] | 1000 to 10000 nM | 1000 to 10000 nM | 100 to 1000 nM | 100 to 1000 nM |
| COc1ccccc1C(=O)NCc1ccc(-c2nn(C3CCCOC3)c(N)c2C(N)=O)cc1 (stereo not shown) [Example 80, 5-amino-3-[4-[[(2-methoxybenzoyl)amino]methyl]phenyl]-1-tetrahydropyran-3-yl-pyrazole-4-carboxamide] | 100 to 1000 nM | 10 to 100 nM | < 10 nM | < 10 nM |
| COc1ccccc1C(=O)NCc1ccc(-c2nn(-c3cccc(F)c3F)c(N)c2C(N)=O)cc1 [Example 81, 5-amino-1-(2,3-difluorophenyl)-3-[4-[[(2-methoxybenzoyl)amino]methyl]phenyl]pyrazole-4-carboxamide] | 100 to 1000 nM | 10 to 100 nM | < 10 nM | < 10 nM |
| COc1ccccc1C(=O)NCc1ccc(-c2nn(C3CC(C)(C)OC3(C)C)c(N)c2C(N)=O)cc1 (stereo not shown) [Example 82, 5-amino-3-[4-[[(2-methoxybenzoyl)amino]methyl]phenyl]-1-(2,2,5,5-tetramethyltetrahydrofuran-3-yl)pyrazole-4-carboxamide] | 1000 to 10000 nM | 1000 to 10000 nM | 10 to 100 nM | 10 to 100 nM |
| COc1ccccc1C(=O)NCc1ccc(-c2nn([C@H]3CCOC3)c(N)c2C(N)=O)cc1 [Example 83a, 5-amino-3-[4-[[(2-methoxybenzoyl)amino]methyl]phenyl]-1-[(3S)-tetrahydrofuran-3-yl]pyrazole-4-carboxamide] | 1000 to 10000 nM | 100 to 1000 nM | < 10 nM | < 10 nM |
| COc1ccccc1C(=O)NCc1ccc(-c2nn([C@@H]3CCOC3)c(N)c2C(N)=O)cc1 [Example 83b, 5-amino-3-[4-[[(2-methoxybenzoyl)amino]methyl]phenyl]-1-[(3R)-tetrahydrofuran-3-yl]pyrazole-4-carboxamide] | 1000 to 10000 nM | 10 to 100 nM | < 10 nM | < 10 nM |
| CNc1c(C(N)=O)c(-c2ccc(CNC(=O)c3ccccc3OC)cc2)nn1C1CCC1 [Example 87, 1-cyclobutyl-3-[4-[[(2-methoxybenzoyl)amino]methyl]phenyl]-5-(methylamino)pyrazole-4-carboxamide] | 100 to 1000 nM | 100 to 1000 nM | < 10 nM | < 10 nM |
| COc1ccc(F)cc1C(=O)NCc1ccc(-c2nn(C3CCCC3)c(N)c2C(N)=O)cc1 [Example 88, 5-amino-1-cyclopentyl-3-[4-[[(5-fluoro-2-methoxy-benzoyl)amino]methyl]phenyl]pyrazole-4-carboxamide] | 100 to 1000 nM | < 10 nM | < 10 nM | < 10 nM |
| COc1ccccc1C(=O)NCc1ccc(-c2nn(C3CCOCC3(C)C)c(N)c2C(N)=O)cc1 (stereo not shown) [Example 89, 5-amino-1-(3,3-dimethyltetrahydropyran-4-yl)-3-[4-[[(2-methoxybenzoyl)amino]methyl]phenyl]pyrazole-4-carboxamide] | 1000 to 10000 nM | 1000 to 10000 nM | 10 to 100 nM | 10 to 100 nM |

Further lines, results first:

| IC50 (Recombinant EGFR) | IC50 [1] | IC50 [2] | IC50 [3] | SMILES |
| --- | --- | --- | --- | --- |
| 100 to 1000 nM | 10 to 100 nM | < 10 nM | < 10 nM | COc1ccccc1C(=O)NCc1ccc(-c2nn(-c3ccccn3)c(N)c2C(N)=O)cc1 [Example 53, 5-amino-3-[4-[[(2-methoxybenzoyl)amino]methyl]phenyl]-1-(2-pyridyl)pyrazole-4-carboxamide] |
| 100 to 1000 nM | 10 to 100 nM | < 10 nM | < 10 nM | CNc1c(C(N)=O)c(-c2ccc(CNC(=O)c3ccccc3OC)cc2)nn1C1CCCC1 [Example 60, 1-cyclopentyl-3-[4-[[(2-methoxybenzoyl)amino]methyl]phenyl]-5-(methylamino)pyrazole-4-carboxamide] |
| 100 to 1000 nM | 10 to 100 nM | < 10 nM | < 10 nM | COc1ccccc1C(=O)NCc1ccc(-c2nn(-c3cc(F)ccc3F)c(N)c2C(N)=O)cc1 [Example 61, 5-amino-1-(2,5-difluorophenyl)-3-[4-[[(2-methoxybenzoyl)amino]methyl]phenyl]pyrazole-4-carboxamide] |
| 100 to 1000 nM | 10 to 100 nM | < 10 nM | < 10 nM | COc1ccccc1C(=O)NCc1ccc(-c2nn(C3CCCC3)c(N)c2C(N)=O)cc1C [Example 62, 5-amino-1-cyclopentyl-3-[4-[[(2-methoxybenzoyl)amino]methyl]-3-methyl-phenyl]pyrazole-4-carboxamide] |
| 100 to 1000 nM | 10 to 100 nM | < 10 nM | < 10 nM | COc1ccccc1C(=O)NCc1ccc(-c2nn(C3CC(O)c4ccccc43)c(N)c2C(N)=O)cc1 (stereo not shown) [Example 63, 5-amino-1-(3-hydroxyindan-1-yl)-3-[4-[[(2-methoxybenzoyl)amino]methyl]phenyl]pyrazole-4-carboxamide] |
| 100 to 1000 nM | 10 to 100 nM | < 10 nM | < 10 nM | COc1ccccc1C(=O)NCc1ccc(-c2nn(C3CCOCC3)c(N)c2C(N)=O)cc1 [Example 64, 5-amino-3-[4-[[(2-methoxybenzoyl)amino]methyl]phenyl]-1-tetrahydropyran-4-yl-pyrazole-4-carboxamide] |
| 100 to 1000 nM | 10 to 100 nM | < 10 nM | < 10 nM | COc1ccccc1C(=O)NCc1ccc(-c2nn(C3CCC(O)(C(F)(F)F)CC3)c(N)c2C(N)=O)cc1 (stereo not shown) [Example 65, 5-amino-1-[4-hydroxy-4-(trifluoromethyl)cyclohexyl]-3-[4-[[(2-methoxybenzoyl)amino]methyl]phenyl]pyrazole-4-carboxamide] |
| 100 to 1000 nM | 10 to 100 nM | < 10 nM | < 10 nM | COc1ccccc1C(=O)NCc1ccc(-c2nn(C3CCC(F)(F)CC3)c(N)c2C(N)=O)cc1 [Example 68, 5-amino-1-(4,4-difluorocyclohexyl)-3-[4-[[(2-methoxybenzoyl)amino]methyl]phenyl]pyrazole-4-carboxamide] |
| 100 to 1000 nM | 10 to 100 nM | < 10 nM | < 10 nM | COc1ccccc1C(=O)NCc1ccc(-c2nn(C3CCC4(CC3)COC4)c(N)c2C(N)=O)cc1 [Example 71, 5-amino-3-[4-[[(2-methoxybenzoyl)amino]methyl]phenyl]-1-(2-oxaspiro[3.5]nonan-7-yl)pyrazole-4-carboxamide] |
| 100 to 1000 nM | 10 to 100 nM | < 10 nM | < 10 nM | CCNc1c(C(N)=O)c(-c2ccc(CNC(=O)c3ccccc3OC)cc2)nn1C1CCCC1 [Example 73, 1-cyclopentyl-5-(ethylamino)-3-[4-[[(2-methoxybenzoyl)amino]methyl]phenyl]pyrazole-4-carboxamide] |
| 100 to 1000 nM | 10 to 100 nM | < 10 nM | < 10 nM | COc1ccc(F)cc1C(=O)NCc1ccc(-c2nn(C3CCCC3)c(N)c2C(N)=O)cc1F [Example 76, 5-amino-1-cyclopentyl-3-[3-fluoro-4-[[(5-fluoro-2-methoxy-benzoyl)amino]methyl]phenyl]pyrazole-4-carboxamide] |

From patent US11826351B2, “Compounds useful as kinase inhibitors” (Loxo Oncology, Inc., priority 2015, dated 2023)
